Tested on: MV-4-11 cells
Test: Gene expression microarray analysis (Affymetrix PrimeView) and GSEA
Assay type: cell-based, human
Set-up: RFU PODN (11730768_x_at) / Fold change /veh PODN (11730768_x_at) / RFU LINC00158 (11744669_a_at) / Fold change /veh LINC00158 (11744669_a_at) / RFU DUSP10 (11751237_a_at) / Fold change /veh DUSP10 (11751237_a_at) / RFU ID3 (11757404_x_at) / Fold change /veh ID3 (11757404_x_at) / RFU PLEKHG5 (11737974_s_at) / Fold change /veh PLEKHG5 (11737974_s_at) / RFU LRRC4B (11730491_at) / Fold change /veh LRRC4B (11730491_at) / RFU GIMAP4 (11747438_a_at) / Fold change /veh GIMAP4 (11747438_a_at) / RFU KRT8 (11758183_x_at) / Fold change /veh KRT8 (11758183_x_at) / RFU CNN1 (11734310_a_at) / Fold change /veh CNN1 (11734310_a_at) / RFU VPS37D (11726825_at) / Fold change /veh VPS37D (11726825_at) / RFU C10orf10 (11716522_x_at) / Fold change /veh C10orf10 (11716522_x_at) / RFU KIR2DL2 /// KIR2DL4 /// KIR2DL5A /// KIR2DL5B /// KIR2DS1 /// KIR2DS2 /// KIR2DS3 /// KIR2DS4 /// KIR3DL3 /// KIR3DL3 /// KIR3DS1 (11738374_at) / Fold change /veh KIR2DL2 /// KIR2DL4 /// KIR2DL5A /// KIR2DL5B /// KIR2DS1 /// KIR2DS2 /// KIR2DS3 /// KIR2DS4 /// KIR3DL3 /// KIR3DL3 /// KIR3DS1 (11738374_at) / RFU C1QL1 (11718748_at) / Fold change /veh C1QL1 (11718748_at) / RFU TMPRSS4 (11747572_a_at) / Fold change /veh TMPRSS4 (11747572_a_at) / RFU HAMP (11756126_x_at) / Fold change /veh HAMP (11756126_x_at) / RFU RNFT2 (11725882_a_at) / Fold change /veh RNFT2 (11725882_a_at) / RFU NR4A2 (11747474_a_at) / Fold change /veh NR4A2 (11747474_a_at) / RFU ABCC12 (11746883_a_at) / Fold change /veh ABCC12 (11746883_a_at) / RFU TMEM136 (11760407_x_at) / Fold change /veh TMEM136 (11760407_x_at) / RFU CLDN22 /// WWC2 (11732394_at) / Fold change /veh CLDN22 /// WWC2 (11732394_at) / RFU HLA-DPB1 (11760878_x_at) / Fold change /veh HLA-DPB1 (11760878_x_at) / RFU SPINT1 (11716480_a_at) / Fold change /veh SPINT1 (11716480_a_at) / RFU GAP43 (11754022_s_at) / Fold change /veh GAP43 (11754022_s_at) / RFU A4GNT (11735810_at) / Fold change /veh A4GNT (11735810_at) / RFU PRB3 (11715151_x_at) / Fold change /veh PRB3 (11715151_x_at) / RFU TUBB4B (11761932_at) / Fold change /veh TUBB4B (11761932_at) / RFU CAPN14 (11732068_a_at) / Fold change /veh CAPN14 (11732068_a_at) / RFU TMCC2 (11721928_a_at) / Fold change /veh TMCC2 (11721928_a_at) / RFU IRGQ (11745062_a_at) / Fold change /veh IRGQ (11745062_a_at) / RFU FAM174B (11720279_a_at) / Fold change /veh FAM174B (11720279_a_at) / RFU TMPRSS4 (11748680_a_at) / Fold change /veh TMPRSS4 (11748680_a_at) / RFU FAM212B (11763350_a_at) / Fold change /veh FAM212B (11763350_a_at) / RFU PLEKHG5 (11743358_a_at) / Fold change /veh PLEKHG5 (11743358_a_at) / RFU ZSCAN30 (11745921_a_at) / Fold change /veh ZSCAN30 (11745921_a_at) / RFU CMKLR1 (11741424_a_at) / Fold change /veh CMKLR1 (11741424_a_at) / RFU LOC101060620 /// MAPK8IP1 (11723275_at) / Fold change /veh LOC101060620 /// MAPK8IP1 (11723275_at) / RFU SPTSSB (11747773_x_at) / Fold change /veh SPTSSB (11747773_x_at) / RFU PRSS12 (11739890_at) / Fold change /veh PRSS12 (11739890_at) / RFU BIN1 (11741810_x_at) / Fold change /veh BIN1 (11741810_x_at) / RFU WNT11 (11732464_a_at) / Fold change /veh WNT11 (11732464_a_at) / RFU C10orf10 (11716521_a_at) / Fold change /veh C10orf10 (11716521_a_at) / RFU C5orf56 (11738089_at) / Fold change /veh C5orf56 (11738089_at) / RFU CYB561 (11721691_x_at) / Fold change /veh CYB561 (11721691_x_at) / RFU ANKRD19P (11752326_a_at) / Fold change /veh ANKRD19P (11752326_a_at) / RFU OR2T12 /// OR2T33 /// OR2T8 (11738714_s_at) / Fold change /veh OR2T12 /// OR2T33 /// OR2T8 (11738714_s_at) / RFU VCAN (11748164_a_at) / Fold change /veh VCAN (11748164_a_at) / RFU JSRP1 (11732532_at) / Fold change /veh JSRP1 (11732532_at) / RFU KRTAP10-11 (11738290_x_at) / Fold change /veh KRTAP10-11 (11738290_x_at) / RFU MYO3A (11730013_a_at) / Fold change /veh MYO3A (11730013_a_at) / RFU EBF3 (11725865_a_at) / Fold change /veh EBF3 (11725865_a_at) / RFU CAMK2N1 (11719241_x_at) / Fold change /veh CAMK2N1 (11719241_x_at) / RFU C5orf56 (11738088_a_at) / Fold change /veh C5orf56 (11738088_a_at) / RFU OLFML3 (11715873_a_at) / Fold change /veh OLFML3 (11715873_a_at) / RFU LOC100653217 /// NTM (11731650_a_at) / Fold change /veh LOC100653217 /// NTM (11731650_a_at) / RFU MAPK11 (11762145_a_at) / Fold change /veh MAPK11 (11762145_a_at) / RFU FIZ1 (11724087_x_at) / Fold change /veh FIZ1 (11724087_x_at) / RFU OASL (11726364_x_at) / Fold change /veh OASL (11726364_x_at) / RFU SOX15 (11748057_x_at) / Fold change /veh SOX15 (11748057_x_at) / RFU CD79A (11719716_a_at) / Fold change /veh CD79A (11719716_a_at) / RFU HIST1H1D (11736915_at) / Fold change /veh HIST1H1D (11736915_at) / RFU CASKIN2 (11723855_a_at) / Fold change /veh CASKIN2 (11723855_a_at) / RFU LOC730098 (11760151_x_at) / Fold change /veh LOC730098 (11760151_x_at) / RFU OR4N2 (11742367_at) / Fold change /veh OR4N2 (11742367_at) / RFU PRRT2 (11749266_a_at) / Fold change /veh PRRT2 (11749266_a_at) / RFU SNX32 (11753110_a_at) / Fold change /veh SNX32 (11753110_a_at) / RFU CDHR5 (11726645_a_at) / Fold change /veh CDHR5 (11726645_a_at) / RFU RCAN1 (11760418_a_at) / Fold change /veh RCAN1 (11760418_a_at) / RFU FAM167A (11723789_a_at) / Fold change /veh FAM167A (11723789_a_at) / RFU FAM26E (11764081_at) / Fold change /veh FAM26E (11764081_at) / RFU ISYNA1 (11749810_s_at) / Fold change /veh ISYNA1 (11749810_s_at) / RFU ACY1 (11761880_at) / Fold change /veh ACY1 (11761880_at) / RFU 11764098_at / Fold change /veh 11764098_at / RFU SAMD14 (11745864_x_at) / Fold change /veh SAMD14 (11745864_x_at) / RFU NPB (11741838_a_at) / Fold change /veh NPB (11741838_a_at) / RFU TMPRSS6 (11731388_a_at) / Fold change /veh TMPRSS6 (11731388_a_at) / RFU KRTAP10-2 (11738614_at) / Fold change /veh KRTAP10-2 (11738614_at) / RFU ARHGAP8 /// PRR5-ARHGAP8 (11727945_x_at) / Fold change /veh ARHGAP8 /// PRR5-ARHGAP8 (11727945_x_at) / RFU KRTAP5-7 /// NADSYN1 (11734609_at) / Fold change /veh KRTAP5-7 /// NADSYN1 (11734609_at) / RFU RASL12 (11751679_a_at) / Fold change /veh RASL12 (11751679_a_at) / RFU CDKN2B (11736163_a_at) / Fold change /veh CDKN2B (11736163_a_at) / RFU PRF1 (11729649_at) / Fold change /veh PRF1 (11729649_at) / RFU, ZNF638 /// ZNF638-IT1 / Fold change vs veh, ZNF638 /// ZNF638-IT1 / RFU, PANK3 / Fold change vs veh, PANK3 / RFU, SH3YL1 / Fold change vs veh, SH3YL1 / RFU, ZEB2 / Fold change vs veh, ZEB2 / RFU, NRIP1 / Fold change vs veh, NRIP1 / RFU, PTTG1IP / Fold change vs veh, PTTG1IP / RFU, CAPN2 / Fold change vs veh, CAPN2 / RFU, MED14 / Fold change vs veh, MED14 / RFU, SNORA58 / Fold change vs veh, SNORA58 / RFU, C1orf63 / Fold change vs veh, C1orf63 / RFU, LRRFIP1 / Fold change vs veh, LRRFIP1 / RFU, NDUFAF7 / Fold change vs veh, NDUFAF7 / RFU, SLC12A2 / Fold change vs veh, SLC12A2 / RFU, IBTK / Fold change vs veh, IBTK / RFU, ESF1 / Fold change vs veh, ESF1 / Fold change vs veh, TMEM50B / RFU, TAOK1 / Fold change vs veh, TAOK1 / RFU, ACBD3 / Fold change vs veh, ACBD3 / RFU, TMA16 / Fold change vs veh, TMA16 / RFU, RWDD3 / Fold change vs veh, RWDD3 / RFU, BCAT1 / Fold change vs veh, BCAT1 / RFU, EDEM3 / Fold change vs veh, EDEM3 / RFU, TMEM33 / Fold change vs veh, TMEM33 / RFU, WDR75 / Fold change vs veh, WDR75 / RFU, AHCTF1 / Fold change vs veh, AHCTF1 / RFU, TFRC / Fold change vs veh, TFRC / RFU, ZDHHC17 / Fold change vs veh, ZDHHC17 / RFU, NOM1 / Fold change vs veh, NOM1 / RFU, ARL8B / Fold change vs veh, ARL8B / RFU, ZBTB11 / Fold change vs veh, ZBTB11 / RFU, TAMM41 / Fold change vs veh, TAMM41 / RFU, KIAA1704 /// LOC100996395 / Fold change vs veh, KIAA1704 /// LOC100996395 / RFU, ING1 / Fold change vs veh, ING1 / RFU, TRMT61B / Fold change vs veh, TRMT61B / RFU, FUBP3 / Fold change vs veh, FUBP3 / RFU, TP53 / Fold change vs veh, TP53 / RFU, TNKS2 / Fold change vs veh, TNKS2 / RFU, ZFP14 / Fold change vs veh, ZFP14 / RFU, ACTR2 / Fold change vs veh, ACTR2 / RFU, PPP3R1 / Fold change vs veh, PPP3R1 / RFU, PIK3R1 / Fold change vs veh, PIK3R1 / RFU, HNRNPA1 / Fold change vs veh, HNRNPA1 / RFU, RNF170 / Fold change vs veh, RNF170 / RFU, ZNF28 / Fold change vs veh, ZNF28 / RFU, RNGTT / Fold change vs veh, RNGTT / RFU, OGT / Fold change vs veh, OGT / RFU, BRD1 / Fold change vs veh, BRD1 / RFU, MARS / Fold change vs veh, MARS / RFU, ZNF655 / Fold change vs veh, ZNF655 / RFU, FAHD1 / Fold change vs veh, FAHD1 / RFU, BDP1 / Fold change vs veh, BDP1 / RFU, LRRCC1 / Fold change vs veh, LRRCC1 / RFU, ARID1A / Fold change vs veh, ARID1A / RFU, ZNF146 / Fold change vs veh, ZNF146 / RFU, ZNF330 / Fold change vs veh, ZNF330 / RFU, GPN3 / Fold change vs veh, GPN3 / RFU, C9orf123 / Fold change vs veh, C9orf123 / RFU, N4BP2L2 / Fold change vs veh, N4BP2L2 / RFU, ARFIP1 / Fold change vs veh, ARFIP1 / RFU, FAM179B / Fold change vs veh, FAM179B / RFU, BCL10 / Fold change vs veh, BCL10 / RFU, UHRF1BP1L / Fold change vs veh, UHRF1BP1L / RFU, BET1 / Fold change vs veh, BET1 / RFU, CNOT2 / Fold change vs veh, CNOT2 / RFU, ZNF268 / Fold change vs veh, ZNF268 / Fold change vs veh, ZNF507 / RFU, DGCR2 / Fold change vs veh, DGCR2 / RFU, WDSUB1 / Fold change vs veh, WDSUB1 / Fold change vs veh, HSP90B1 /// MIR3652 / RFU, ADSS / Fold change vs veh, ADSS / RFU, GK / Fold change vs veh, GK / RFU, ZNF148 / Fold change vs veh, ZNF148 / RFU, TAF9 / Fold change vs veh, TAF9 / RFU, SLC1A5 / Fold change vs veh, SLC1A5 / RFU, SLMO2 / Fold change vs veh, SLMO2 / RFU, ABCC4 / Fold change vs veh, ABCC4 / RFU, LOC101060439 /// RAP1B / Fold change vs veh, LOC101060439 /// RAP1B / RFU, RFX7 / Fold change vs veh, RFX7 / RFU, GTPBP10 / Fold change vs veh, GTPBP10 / RFU, CNEP1R1 / Fold change vs veh, CNEP1R1 / RFU, BIVM-ERCC5 /// ERCC5 / Fold change vs veh, BIVM-ERCC5 /// ERCC5 / RFU, ILF3 / Fold change vs veh, ILF3 / RFU 11762660_at / Fold change /veh 11762660_at / RFU VCAN (11757783_s_at) / Fold change /veh VCAN (11757783_s_at) / RFU DDX43 (11728927_at) / Fold change /veh DDX43 (11728927_at) / RFU KRT8 (11758188_x_at) / Fold change /veh KRT8 (11758188_x_at) / RFU NKD1 (11759106_at) / Fold change /veh NKD1 (11759106_at) / RFU SRD5A1 (11742802_a_at) / Fold change /veh SRD5A1 (11742802_a_at) / RFU TPSAB1 /// TPSB2 (11721975_s_at) / Fold change /veh TPSAB1 /// TPSB2 (11721975_s_at) / RFU GSTM3 (11746129_a_at) / Fold change /veh GSTM3 (11746129_a_at) / RFU IL23R (11737362_x_at) / Fold change /veh IL23R (11737362_x_at) / RFU TMEM51 (11727254_a_at) / Fold change /veh TMEM51 (11727254_a_at) / RFU PIWIL2 (11732686_x_at) / Fold change /veh PIWIL2 (11732686_x_at) / RFU ORM1 (11744905_x_at) / Fold change /veh ORM1 (11744905_x_at) / RFU CCDC152 (11743942_at) / Fold change /veh CCDC152 (11743942_at) / RFU ECM1 (11717891_a_at) / Fold change /veh ECM1 (11717891_a_at) / RFU IL23R (11748794_a_at) / Fold change /veh IL23R (11748794_a_at) / RFU TNFAIP8L3 (11732012_x_at) / Fold change /veh TNFAIP8L3 (11732012_x_at) / RFU MBOAT4 (11741988_at) / Fold change /veh MBOAT4 (11741988_at) / RFU 11764193_at / Fold change /veh 11764193_at / RFU TMEM53 (11763286_at) / Fold change /veh TMEM53 (11763286_at) / RFU MAGEB2 (11727129_at) / Fold change /veh MAGEB2 (11727129_at) / RFU TMEM200A (11744735_a_at) / Fold change /veh TMEM200A (11744735_a_at) / RFU CCDC152 (11751479_a_at) / Fold change /veh CCDC152 (11751479_a_at) / RFU FAM211A (11726209_a_at) / Fold change /veh FAM211A (11726209_a_at) / RFU RGS16 (11746705_a_at) / Fold change /veh RGS16 (11746705_a_at) / RFU VCAN (11755009_s_at) / Fold change /veh VCAN (11755009_s_at) / RFU RHOB (11743442_s_at) / Fold change /veh RHOB (11743442_s_at) / RFU RGS16 (11720943_a_at) / Fold change /veh RGS16 (11720943_a_at) / RFU RGS16 (11720944_at) / Fold change /veh RGS16 (11720944_at) / RFU, VPS4B / Fold change vs veh, VPS4B / RFU, CREB1 / Fold change vs veh, CREB1 / RFU, DNAJC13 / Fold change vs veh, DNAJC13 / RFU, GNAQ / Fold change vs veh, GNAQ / RFU, CDK5R1 / Fold change vs veh, CDK5R1 / RFU, ZRANB3 / Fold change vs veh, ZRANB3 / RFU, CUL4A / Fold change vs veh, CUL4A / RFU, CCNY / Fold change vs veh, CCNY / RFU, UFL1 / Fold change vs veh, UFL1 / RFU, COG3 / Fold change vs veh, COG3 / RFU, DIAPH2 / Fold change vs veh, DIAPH2 / RFU, SKA2 / Fold change vs veh, SKA2 / RFU, AFF3 / Fold change vs veh, AFF3 / RFU, LMF1 / Fold change vs veh, LMF1 / RFU, IPO11 / Fold change vs veh, IPO11 / RFU, DFFB / Fold change vs veh, DFFB / RFU, FOXP1 / Fold change vs veh, FOXP1 / RFU, CARD8 / Fold change vs veh, CARD8 / RFU, STRN3 / Fold change vs veh, STRN3 / RFU, ADK / Fold change vs veh, ADK / RFU, RASSF2 / Fold change vs veh, RASSF2 / RFU, WIPF1 / Fold change vs veh, WIPF1 / RFU, LARP1B / Fold change vs veh, LARP1B / RFU, RASA1 / Fold change vs veh, RASA1 / RFU, RB1 / Fold change vs veh, RB1 / RFU, PPFIA1 / Fold change vs veh, PPFIA1 / RFU, MAT2A / Fold change vs veh, MAT2A / RFU, CCT5 / Fold change vs veh, CCT5 / RFU, WDR92 / Fold change vs veh, WDR92 / RFU, CUX1 / Fold change vs veh, CUX1 / RFU, TTC7A / Fold change vs veh, TTC7A / RFU, TMEM135 / Fold change vs veh, TMEM135 / RFU, DEPTOR / Fold change vs veh, DEPTOR / RFU, CPM / Fold change vs veh, CPM / RFU, DNAJB6 / Fold change vs veh, DNAJB6 / RFU, CACNA2D3 / Fold change vs veh, CACNA2D3 / RFU, DTX4 / Fold change vs veh, DTX4 / RFU, TFCP2 / Fold change vs veh, TFCP2 / RFU, GMCL1 /// GMCL1P1 / Fold change vs veh, GMCL1 /// GMCL1P1 / RFU, AEBP2 / Fold change vs veh, AEBP2 / RFU, SNHG1 /// SNORD22 /// SNORD25 /// SNORD26 /// SNORD27 /// SNORD28 /// SNORD29 /// SNORD31 / Fold change vs veh, SNHG1 /// SNORD22 /// SNORD25 /// SNORD26 /// SNORD27 /// SNORD28 /// SNORD29 /// SNORD31 / Fold change (Aza/veh), C12orf56 (ProbeSet 11735607_a_at) / Fold change (ACY-1035/veh), C12orf56 (ProbeSet 11735607_a_at) / Fold change (Aza/veh), FGFR1OP (ProbeSet 11751329_s_at) / Fold change (ACY-1035/veh), FGFR1OP (ProbeSet 11751329_s_at) / Fold change (Aza/veh), VPS36 (ProbeSet 11739960_a_at) / Fold change (ACY-1035/veh), VPS36 (ProbeSet 11739960_a_at) / RFU SYPL1 (11715823_x_at) / Fold change /veh SYPL1 (11715823_x_at) / RFU IGFBP7 (11715501_s_at) / Fold change /veh IGFBP7 (11715501_s_at) / RFU REEP3 (11722064_at) / Fold change /veh REEP3 (11722064_at) / RFU IGLL1 (11728026_x_at) / Fold change /veh IGLL1 (11728026_x_at): dose or concentration left out as unconfirmed
Conditions: MV-4-11 cells, 48 hours

## Nc1ccc(-c2cccs2)cc1NC(=O)c1ccc2c(c1)cc(C1CC1)n2CCN1CCOCC1 [ACY-1035]
  Fold change /veh CAPN14 (11732068_a_at): 1.08
